Results as given in patent US8466104B2, “Therapeutically active alpha MSH analogues” (AbbVie Inc., priority 2005, dated 2013).
Read-outs that look alike come from different tables or passages of the source.

Columns and labels:
[1] = tested on: LPS induced TNF-α in plasma; experiment: Inhibition of LPS induced TNFa production in rats in vivo (experimental setup 2); design: species or system rat; settings: for dose at which the maximal inhibitory effect on TNF-a is achieved: doses 50, 200, 1000 μg/kg tested
Procedure: Inhibition of LPS Induced TNFa Production in Rats In Vivo
Experimental animals. Female Wistar rats (220-240 g) are obtained from the Charles River, Sulzfeld, Germany, and housed in a temperature- (22-24° C.) and moisture-controlled (40-70%) room with a 12 h light-dark cycle (light on from 6:00 A.M. to 6:00 P.M.). The rats are maintained on a standard rodent diet with 140 mmol/kg of sodium, 275 mmol/kg potassium and 23% protein (Altromin International, Lage, Germany) and have free access to water.
Animal preparation. […] After instrumentation, the animals are housed individually for 7-10 days until the day of the experiment.
Experimental protocol. Prior to the experiments all rats are adapted to the restraining cage used for the experiments by training them for two periods of two hours each. On the day of the experiment, the animal is transferred to a restraining cage, and an intravenous infusion of vehicle solution containing 150 mM glucose is started. The infusion rate is 0.5 ml/h throughout the experiment. After a short adaptation period, infusion of lipopolysaccharide (LPS) is started. LPS (E coli serotype 0127 B8, L 3129, Sigma, St. Louis, USA) is given at a dose of 4 mg/kg body weight delivered as an i.v. infusion over 1 hour. Arterial blood samples of 0.3 ml are taken 60, 90, and 120 minutes after start of the LPS infusion and replaced immediately with heparinized blood from a normal donor rat.
In addition to LPS infusion all rats are treated with a bolus injection of: • Vehicle (0.5 mL isotonic saline); • a-MSH in one of the following doses: 50 μg/kg bw; 200 μg/kg/bw or 1000 μg/kg bw; • Test compound in one of the following doses: 50 μg/kg bw; 200 μg/kg/bw or 1000 μg/kg bw.
Measurement of TNF-α in plasma: The blood samples are collected in a prechilled test tube with 0.5 mM EDTA, pH 7.4, and 20×10^6 IU/ml aprotinin. After centrifugation at 4° C., plasma samples are transferred to pre-chilled test tubes and stored at −20° C. for later measurements of TNF-α. TNF-α in plasma is determined by an ELISA (Biotrak, Amersham, UK).
Statistical analyses. Results are presented as means±SE. A two-way ANOVA for repeated measures is used to test for differences between groups. In case of P<0.05, the differences between corresponding periods are evaluated by unpaired t-tests with Bonferroni's correction of the level of significance.

[2] = tested on: LPS induced TNF-α production by human leucocytes (PBMC); experiment: Inhibition of LPS induced TNF-a production by human leucocytes in vitro (experimental setup 1); assay type: cell-based; settings: human leucocyte suspension
Procedure: Inhibition of LPS Induced TNF-a Production by Human Leucocytes In Vitro
20 mL human blood is collected in vacutainer tubes containing EDTA. PBMC is isolated using Ficoll-Paque Plus as in Amersham's Instruction 71-7167-00 AD, 2002-06. PBMC is counted using Tryphan Blue Solution (Sigma) and incubated in RPMI 1640, (Applichem), supplemented with 10 mM Hepes (Sigma), 2 mM L-glutamin (Sigma), 0.1% BSA (Sigma) and 50U/50 μg/mL Penicillin/Streptomycin (Sigma) in the concentration 5×10^5 cells/mL. The isolated PBMC is incubated in a humidified 5% CO2, 95% air atmosphere, at 37° C., in 24 well flat-bottomed plates (Corning Incorporated) with medium, 10 ng LPS/mL (Sigma), and test compound. After 18 hours the samples are centrifuged, and TNF-α in the supernatants is measured using Tumour Necrosis Factor Alpha [(h)TNF-α] from Human Biotrak ELISA System (Amersham).
The samples are incubated as following per donor: • PBMC's in RPMI (Time Control) • PBMC's with 10 ng LPS/mL (Vehicle) • PBMC's, 10 ng LPS/mL, 10^−17M a-MSH or a-MSH analogue • PBMC's, 10 ng LPS/mL, 10^−15M a-MSH or a-MSH analogue • PBMC's, 10 ng LPS/mL, 10^−13M a-MSH or a-MSH analogue • PBMC's, 10 ng LPS/mL, 10^−11M a-MSH or a-MSH analogue • PBMC's, 10 ng LPS/mL, 10^−9M a-MSH or a-MSH analogue • PBMC's, 10 ng LPS/mL, 10^−7M a-MSH or a-MSH analogue
All samples are diluted from an initial stock solution between 1.4×10^−4M and 1.8×10^−3M. All solutions are handled in BSA coated vials in order to protect against binding of the compound to the surface of the vials.
Data is presented as mean±SE. The effect of test compounds on LPS induced TNF-a liberation is expressed as percentage of the TNF-a accumulation in the LPS-vehicle group. All comparisons are analysed with Student's unpaired t-test. Differences are considered significant at probability levels (p) of 0.05.

Row | Substance | reduction of TNF-a accumulation during iv infusion of LPS [1] | inhibitory effect on plasma TNF-a compared to native a-MSH ([1]; iv LPS infusion) | dose at which the maximal inhibitory effect on TNF-a is achieved ([1]; iv LPS infusion) | inhibitory effect on plasma TNF-a compared to native a-MSH ([1]; iv LPS infusion, listed as SEQ ID NO: 2*) | reduction of TNF-a accumulation during iv infusion of LPS ([1]; listed as SEQ ID NO: 2*) | dose dependent reduction of LPS induced TNF-a accumulation [2] | inhibitory effect on TNF-a accumulation compared to native a-MSH [2] | TNF-a concentration in plasma, % of the maximal response (LPS-Vehicle) ([1]; iv LPS infusion, 200 μg/kg body weight iv, 120 minutes after initiation of LPS infusion) | inhibitory effect on plasma TNF-a compared to native a-MSH ([1]; iv LPS infusion, listed as SEQ ID NO: 13*) | reduction of TNF-a accumulation during iv infusion of LPS ([1]; listed as SEQ ID NO: 13*) | inhibitory effect on plasma TNF-a compared to native a-MSH ([1]; iv LPS infusion, listed as SEQ ID NO: 17*) | reduction of TNF-a accumulation during iv infusion of LPS ([1]; listed as SEQ ID NO: 17*) | inhibitory effect on plasma TNF-a compared to native a-MSH ([1]; iv LPS infusion, listed as SEQ ID NO: 3*) | reduction of TNF-a accumulation during iv infusion of LPS ([1]; listed as SEQ ID NO: 3*)
1 | Ac-Glu-Glu-Glu-Glu-Glu-Glu-Ser-Tyr-Ser-Met-Glu-His-Phe-Arg-Trp-Gly-Lys-Pro-Val-NH2 (Ac-EEEEEESYSMEHFRWGKPV-NH2) [a-MSH analogue #6] | reduce TNF-a accumulation | markedly more pronounced | 200 μg/kg body weight | higher degree | significantly inhibit | dose dependently reduce | markedly more pronounced |  |  |  |  |  |  | 
2 | Ac-Lys-Lys-Lys-Lys-Lys-Lys-Ser-Ser-Ile-Ile-Ser-His-Phe-Arg-Trp-Gly-Lys-Pro-Val-NH2 (Ac-KKKKKKSSIISHFRWGKPV-NH2) [a-MSH analogue #4] | reduce TNF-a accumulation | markedly more pronounced | 200 μg/kg body weight |  |  | dose dependently reduce | markedly more pronounced | 12±2% | higher degree | significantly inhibit |  |  |  | 
3 | Ac-Lys-Lys-Lys-Lys-Lys-Lys-Ser-Ser-Ile-Ile-Ser-His-(D-Phe)-Arg-Trp-Gly-Lys-Pro-Val-NH2 (KKKKKKSSIISHFRWGKPV; HELM PEPTIDE1{[ac].K.K.K.K.K.K.S.S.I.I.S.H.[dF].R.W.G.K.P.V.[am]}$$$$V2.0; SMILES CC[C@H](C)[C@H](NC(=O)[C@H](CO)NC(=O)[C@H](CO)NC(=O)[C@H](CCCCN)NC(=O)[C@H](CCCCN)NC(=O)[C@H](CCCCN)NC(=O)[C@H](CCCCN)NC(=O)[C@H](CCCCN)NC(=O)[C@H](CCCCN)NC(C)=O)C(=O)N[C@H](C(=O)N[C@@H](CO)C(=O)N[C@@H](Cc1c[nH]cn1)C(=O)N[C@H](Cc1ccccc1)C(=O)N[C@@H](CCCNC(=N)N)C(=O)N[C@@H](Cc1c[nH]c2ccccc12)C(=O)NCC(=O)N[C@@H](CCCCN)C(=O)N1CCC[C@H]1C(=O)N[C@H](C(N)=O)C(C)C)[C@@H](C)CC) [a-MSH analogue #5] | reduce TNF-a accumulation | markedly more pronounced | 200 μg/kg body weight |  |  | dose dependently reduce | markedly more pronounced |  |  |  | higher degree | significantly inhibit |  | 
4 | Ac-Lys-Lys-Lys-Lys-Lys-Lys-Ser-Tyr-Ser-Met-Glu-His-Phe-Arg-Trp-Gly-Lys-Pro-(D-Val)-NH2 (KKKKKKSYSMEHFRWGKPV; HELM PEPTIDE1{[ac].K.K.K.K.K.K.S.Y.S.M.E.H.F.R.W.G.K.P.[dV].[am]}$$$$V2.0; SMILES CSCC[C@H](NC(=O)[C@H](CO)NC(=O)[C@H](Cc1ccc(O)cc1)NC(=O)[C@H](CO)NC(=O)[C@H](CCCCN)NC(=O)[C@H](CCCCN)NC(=O)[C@H](CCCCN)NC(=O)[C@H](CCCCN)NC(=O)[C@H](CCCCN)NC(=O)[C@H](CCCCN)NC(C)=O)C(=O)N[C@@H](CCC(=O)O)C(=O)N[C@@H](Cc1c[nH]cn1)C(=O)N[C@@H](Cc1ccccc1)C(=O)N[C@@H](CCCNC(=N)N)C(=O)N[C@@H](Cc1c[nH]c2ccccc12)C(=O)NCC(=O)N[C@@H](CCCCN)C(=O)N1CCC[C@H]1C(=O)N[C@@H](C(N)=O)C(C)C) [a-MSH analogue #7] | reduce TNF-α accumulation | markedly more pronounced | 200 μg/kg body weight |  |  | dose dependently reduce | markedly more pronounced |  |  |  |  |  | higher degree | significantly inhibit
